These results are taken from paper PMC13185819, “De Novo Multi‐Mechanism Antimicrobial Peptide Design via Multimodal Deep Learning” (Advanced Science, 2026).

In brackets after ≈: the same amount, converted by molar mass. Residues, ends and D or L forms follow the SMILES beside them.

Holding throughout (type): cell-based
For one experiment, the system named is E. faecium 1042. As to the method:
(§1) Standard strains included S. aureus ATCC33592, S. aureus CICC25138, and Salmonella enterica ATCC14028, which were purchased from the China Center of Industrial Culture Collection (CICC). Standard strains including E.coli CMCC44102, Salmonella enterica CMCC50071, and S. aureus CMCC26003 were purchased from the National Center for Medical Culture Collections (CMCC). […] All experiments using the above strains were carried out in a BSL‐2 laboratory. The clinical laboratory of Qilu Hospital detected bacterial resistance to various antibiotics. All strains were streaked on Nutrient Broth (NB) agar medium and incubated overnight at 37°C.
(§2) The antimicrobial activity of the peptides was examined in sterile 96‐well plates using the broth microdilution according to the CLSI standard. The colonies were suspended in saline solution, the turbidity was adjusted to McFarland 0.5 to reach a bacterial concentration of 10^8 CFU/mL, and again diluted 100 times for the inhibition test. Then, 50 µL of bacterial suspension at 1 × 10^6 CFU/mL was incubated with the same volume of different concentrations of peptide solution [serial twofold dilutions in Mueller–Hinton Broth (Hopebio)]. […] All experiments were performed with three independent replicates.

The next experiment deals with E. faecium 21. As to the method:
as §1, §2

The next experiment concerns E.coli 110. As to the method: as §1, §2
Another experiment has as its system E.coli 208. The method, then: as §1, §2
In the next experiment the test system is K. pneumoniae 7713. The method, then: as §1, §2
For another experiment, the system named is P. aeruginosa 112. As to the method:
as §1, §2

In a further experiment the test system is P. aeruginosa 116. As to the method: as §1, §2
The next experiment relates to P. aeruginosa 119. As to the method: as §1, §2
For another experiment, the system named is S. aureus 103. The method, then:
as §1, §2

The subject of another experiment is S. aureus 129. The method, then: as §1, §2
The subject of the next experiment is S. aureus ATCC33592. As to the method: as §1, §2
For the next experiment, the system named is S. aureus CICC25138. As to the method: as §1, §2

For `CC[C@H](C)[C@H](NC(=O)[C@H](CCCCN)NC(=O)[C@H](Cc1c[nH]c2ccccc12)NC(=O)[C@@H](N)CCCCN)C(=O)N[C@@H](CCCCN)C(=O)N[C@@H](Cc1c[nH]c2ccccc12)C(=O)N1CCC[C@H]1C(=O)N[C@@H](CO)C(=O)N[C@@H](CC(N)=O)C(=O)N[C@@H](Cc1c[nH]c2ccccc12)C(=O)N[C@@H](Cc1ccccc1)C(=O)N[C@H](C(=O)N[C@@H](CCCCN)C(=O)N[C@@H](CC(C)C)C(N)=O)[C@@H](C)O` [QLX-3DV-3] (H-KWKIKWPSNWFTKL-NH2), the “MIC (μg/mL) E. faecium 1042” value with E. faecium 1042 stood at 8 µg/mL (≈ 4.3 µM). The “MIC (μg/mL) E. faecium 21” value with E. faecium 21 stood at 8 µg/mL (≈ 4.3 µM). Further, the “MIC (μg/mL) E.coli 110” value against E.coli 110 was found to be 16 µg/mL (≈ 8.6 µM). Also, the “MIC (μg/mL) E.coli 208” value in the experiment with E.coli 208 came to 8 µg/mL (≈ 4.3 µM). The “MIC (μg/mL) K. pneumoniae 7713” value against K. pneumoniae 7713 is 16 µg/mL (≈ 8.6 µM). The “MIC (μg/mL) P. aeruginosa 112” value in the experiment with P. aeruginosa 112 amounted to 32 µg/mL (≈ 17.2 µM). In addition, the “MIC (μg/mL) P. aeruginosa 116” value with P. aeruginosa 116 is 16 µg/mL (≈ 8.6 µM). Moreover, the “MIC (μg/mL) P. aeruginosa 119” value in the experiment with P. aeruginosa 119 was 32 µg/mL (≈ 17.2 µM). Also, the “MIC (μg/mL) S. aureus 103” value against S. aureus 103 is 32 µg/mL (≈ 17.2 µM). In the experiment on S. aureus 129, the “MIC (μg/mL) S. aureus 129” value is 64 µg/mL (≈ 34.4 µM). In addition, the “MIC (μg/mL) S. aureus ATCC33592” value against S. aureus ATCC33592 is 32 µg/mL (≈ 17.2 µM). The “MIC (μg/mL) S. aureus CICC25138” value in the experiment on S. aureus CICC25138 amounted to 32 µg/mL (≈ 17.2 µM).

`CC[C@H](C)[C@H](NC(=O)[C@H](CCCCN)NC(=O)[C@H](Cc1c[nH]c2ccccc12)NC(=O)[C@@H](N)CCCCN)C(=O)N[C@@H](CCCCN)C(=O)N[C@@H](Cc1c[nH]c2ccccc12)C(=O)N1CCC[C@H]1C(=O)N[C@@H](CO)C(=O)N[C@@H](CCCNC(=N)N)C(=O)N[C@@H](Cc1c[nH]c2ccccc12)C(=O)N[C@@H](Cc1ccccc1)C(=O)N[C@H](C(=O)N[C@@H](CCCCN)C(=O)N[C@@H](CC(C)C)C(N)=O)[C@@H](C)O` [QLX-3DV-4] (H-KWKIKWPSRWFTKL-NH2): the “MIC (μg/mL) E. faecium 1042” value in the experiment on E. faecium 1042 came out at 16 µg/mL (≈ 8.41 µM). Further, the “MIC (μg/mL) E. faecium 21” value with E. faecium 21 was 8 µg/mL (≈ 4.2 µM). Besides, the “MIC (μg/mL) E.coli 110” value against E.coli 110 came out at 32 µg/mL (≈ 16.8 µM). Also, in the experiment with E.coli 208, the “MIC (μg/mL) E.coli 208” value turned out to be 16 µg/mL (≈ 8.41 µM). In addition, in the experiment on K. pneumoniae 7713, the “MIC (μg/mL) K. pneumoniae 7713” value came out at 16 µg/mL (≈ 8.41 µM). Also, the “MIC (μg/mL) P. aeruginosa 112” value in the experiment on P. aeruginosa 112 was 32 µg/mL (≈ 16.8 µM). For the same compound, the “MIC (μg/mL) P. aeruginosa 116” value in the experiment on P. aeruginosa 116 came to 32 µg/mL (≈ 16.8 µM). In addition, the “MIC (μg/mL) P. aeruginosa 119” value with P. aeruginosa 119 came to 32 µg/mL (≈ 16.8 µM). Further, the “MIC (μg/mL) S. aureus 103” value against S. aureus 103 was 16 µg/mL (≈ 8.41 µM). For the same compound, the “MIC (μg/mL) S. aureus 129” value against S. aureus 129 was 32 µg/mL (≈ 16.8 µM). Moreover, the “MIC (μg/mL) S. aureus ATCC33592” value with S. aureus ATCC33592 was found to be 32 µg/mL (≈ 16.8 µM). Besides, the “MIC (μg/mL) S. aureus CICC25138” value in the experiment on S. aureus CICC25138 stood at 16 µg/mL (≈ 8.41 µM).

As to `CC[C@H](C)[C@H](NC(=O)[C@H](CCCCN)NC(=O)[C@H](Cc1c[nH]c2ccccc12)NC(=O)[C@@H](N)CCCCN)C(=O)N[C@@H](CCCCN)C(=O)N[C@@H](CCCNC(=N)N)C(=O)N1CCC[C@H]1C(=O)N[C@H](C(=O)N[C@@H](CCCCN)C(=O)N[C@@H](Cc1c[nH]c2ccccc12)C(=O)N[C@@H](Cc1ccccc1)C(=O)N[C@H](C(=O)N[C@@H](CCSC)C(=O)N[C@@H](CC(C)C)C(N)=O)[C@@H](C)O)C(C)C` [QLX-3DV-5] (H-KWKIKRPVKWFTML-NH2), the “MIC (μg/mL) E. faecium 1042” value against E. faecium 1042 was determined as 32 µg/mL (≈ 17.2 µM). Also, in the experiment on E. faecium 21, the “MIC (μg/mL) E. faecium 21” value was determined as 8 µg/mL (≈ 4.3 µM). For the same compound, in the experiment with E.coli 110, the “MIC (μg/mL) E.coli 110” value is 8 µg/mL (≈ 4.3 µM). For the same compound, in the experiment on E.coli 208, the “MIC (μg/mL) E.coli 208” value was found to be 8 µg/mL (≈ 4.3 µM). In addition, in the experiment with K. pneumoniae 7713, the “MIC (μg/mL) K. pneumoniae 7713” value came to 8 µg/mL (≈ 4.3 µM). Moreover, the “MIC (μg/mL) P. aeruginosa 112” value in the experiment on P. aeruginosa 112 was found to be 16 µg/mL (≈ 8.6 µM). For the same compound, the “MIC (μg/mL) P. aeruginosa 116” value against P. aeruginosa 116 was determined as 128 µg/mL (≈ 68.8 µM). Further, in the experiment with P. aeruginosa 119, the “MIC (μg/mL) P. aeruginosa 119” value was determined as 64 µg/mL (≈ 34.4 µM). In addition, the “MIC (μg/mL) S. aureus 103” value with S. aureus 103 came out at 32 µg/mL (≈ 17.2 µM). Further, the “MIC (μg/mL) S. aureus 129” value in the experiment on S. aureus 129 was found to be 128 µg/mL (≈ 68.8 µM). Moreover, in the experiment on S. aureus ATCC33592, the “MIC (μg/mL) S. aureus ATCC33592” value turned out to be 64 µg/mL (≈ 34.4 µM). In addition, the “MIC (μg/mL) S. aureus CICC25138” value with S. aureus CICC25138 worked out at 64 µg/mL (≈ 34.4 µM).
